For series [1], the system named is adenocarcinomic human alveolar basal epithelial cell line A549 cells. In words: ROS production in A549 cells (CellROX Green fluorescence), test as candidate compound for radiosensitizer. It counts as cell-based. Conditions: 1 hour with test compound, CellROX Green 30 minutes, excitation 485 nm, detection 520 nm, FIG. 19. As for the experimental part:
Fetal bovine serum (FBS) (manufactured by Sigma-Aldrich) was added to RPMI1640 (manufactured by Sigma-Aldrich) such that a final concentration was 10%. Further, penicillin G potassium (manufactured by Meiji Seika) and Streptomycin (manufactured by Meiji Seika) were each added in an amount of 0.1 mg/mL, and the thus obtained solution was used as a culture medium in the following test. Also, a CellROX Green Reagent solution (manufactured by Thermo Fisher Scientific) was used as a reagent.
Adenocarcinomic human alveolar basal epithelial cell line A549 cells were suspended in the RPMI1640 medium (1.0×10^5 cells/mL), and the suspension was poured into a 96-well plate in an amount of 100 μL for each well. Thereafter, the cells were cultivated under a 5% CO2 moisture-saturated condition at 37° C. so as to attach to the plate, and after the cultivation was performed for 24 hours, the medium was removed by suction and the cells were washed with PBS. Next, 100 μL of PBS and 100 μL of a suspension of the test compound suspended in PBS ([…]) were separately added. […] After the cultivation was performed for 30 minutes, washing was performed using PBS, and fluorescence intensity at an excitation wavelength of 485 nm and a detection wavelength of 520 nm was measured.

For series [2], the target named is T1, lipase for organic synthesis (Lipase PS Amano SD) (Burkholderia cepacia, UniProt P22088).
T1 construct: purchased FUJIFILM Wako Pure Chemical Corporation
It counts as in vitro ADME. As for the experimental part: The test compound and lipase for organic synthesis (Lipase PS Amano SD, manufactured by FUJIFILM Wako Pure Chemical Corporation) were each adjusted using PBS so as to have a concentration of 1.3 μg/μL. Next, the thus obtained reaction solution was developed by TLC using an eluent (chloroform:methanol=1:1) and was analyzed. A sample that was taken before reaction progressed, a sample that was taken when 2 hours elapsed, and a sample that was taken when 4 hours elapsed were each used as the reaction solution to be developed. As for the reaction solution in which the compound (A) was used as the test compound, analysis was also performed on a sample that was taken when 18 hours elapsed from the start of reaction. TLC aluminum sheet silica gel 60 F254 (manufactured by Merck) was used as the TLC.

The source of these data is patent US11267840B1, “Compound or salt thereof” (M.T.3, Inc., priority 2020, dated 2022).

T1 sequence (P22088 45-364): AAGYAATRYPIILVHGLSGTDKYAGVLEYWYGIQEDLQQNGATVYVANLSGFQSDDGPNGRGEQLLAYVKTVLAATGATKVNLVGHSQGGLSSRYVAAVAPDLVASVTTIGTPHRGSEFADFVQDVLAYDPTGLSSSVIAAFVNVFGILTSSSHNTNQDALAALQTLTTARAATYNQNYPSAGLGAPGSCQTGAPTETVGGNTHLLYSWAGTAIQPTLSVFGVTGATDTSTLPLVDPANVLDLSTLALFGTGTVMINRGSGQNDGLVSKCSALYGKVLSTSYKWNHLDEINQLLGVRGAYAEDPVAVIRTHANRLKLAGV

As for “3-(n-octadecyloxy)-n-propyl-α-D-quinovopyranoside sodium salt [compound (A)]”, the “ROS production (ROS production ratio, fluorescence intensity relative to PBS only = 1)” value in series [1] is recorded as “induced production of the ROS”. Also, the “resistance to hydrolysis compared with the sulfopyranosylacyl propanediol derivative” value in series [2] (lipase, overall conclusion of FIG. 20) is “more excellent resistance to hydrolysis”. In addition, the “decomposition of the test compound by lipase (TLC)” value in series [2] (when 18 hours elapsed from the start of reaction, compound and lipase each 1.3 μg/μL in PBS, FIG. 20) is reported as “not completely decomposed”.
